Results taken from ChEMBL document CHEMBL1201862, “PubChem BioAssay data set” (2004).
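How tested: cells in 96-well plates exposed to compound for 48 hours at five concentrations. GI50 = concentration required for 50% inhibition of growth.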 Calls of active or inactive are those of the source. Rule as the data show it: active = GI50 up to about 1.1 µM and inactive = higher.

Experiments:
Assay in all cases: NCI anticancer screen, dose series, 48 h
SF-268 = system: SF-268
SK-OV-3 = system: SK-OV-3
HOP-62 = system: HOP-62
UO-31 = system: UO-31
DU-145 = system: DU-145
PC-3 = system: PC-3
Hs-578T = system: Hs-578T
SR = system: SR
SF-295 = system: SF-295
OVCAR-4 = system: OVCAR-4
CAKI-1 = system: CAKI-1
NCI-H23 = system: NCI-H23
OVCAR-3 = system: OVCAR-3
OVCAR-8 = system: OVCAR-8
EKVX = system: EKVX
SNB-19 = system: SNB-19
HL-60 = system: HL-60
A549 = system: A549
786-0 = system: 786-0
K562 = system: K562

SMILES	GI50 (SF-268)	GI50 (SK-OV-3)	GI50 (HOP-62)	GI50 (UO-31)	GI50 (DU-145)	GI50 (PC-3)	GI50 (Hs-578T)	GI50 (SR)	GI50 (SF-295)	GI50 (OVCAR-4)	GI50 (CAKI-1)	GI50 (NCI-H23)	GI50 (OVCAR-3)	GI50 (OVCAR-8)	GI50 (EKVX)	GI50 (SNB-19)	GI50 (HL-60)	GI50 (A549)	GI50 (786-0)	GI50 (K562)
CCCCC1=C(C(=O)N2CCOCC2)C2(OCCO2)C1=O	24 µM (inactive)	62.4 µM (inactive)	23.6 µM (inactive)	15.5 µM (inactive)	33 µM (inactive)	31.8 µM (inactive)	31.7 µM (inactive)	83.8 µM (inactive)	32.5 µM (inactive)	23.1 µM (inactive)	21.9 µM (inactive)	18.3 µM (inactive)	19.5 µM (inactive)	23.2 µM (inactive)	26.2 µM (inactive)	14 µM (inactive)	30.2 µM (inactive)	18 µM (inactive)	18.2 µM (inactive)	–
CCCCCCCCCCCCCCCCCCOCC(COCCOCC[N+]1(CCCCCC(=O)[O-])CCCC1)Oc1ncccn1 (stereo unspecified)	3.51 µM (inactive)	3.87 µM (inactive)	1.88 µM (inactive)	10.1 µM (inactive)	13.3 µM (inactive)	0.643 µM (active)	13.6 µM (inactive)	3.18 µM (inactive)	4.88 µM (inactive)	2.2 µM (inactive)	9.51 µM (inactive)	4.88 µM (inactive)	5.2 µM (inactive)	2.56 µM (inactive)	14.6 µM (inactive)	2.17 µM (inactive)	0.395 µM (active)	3.95 µM (inactive)	7.23 µM (inactive)	2.19 µM (inactive)
COc1ccc2c(-c3ccc(O)cc3)c(Oc3ccccc3)c(=O)oc2c1	> 32.9 µM (inactive)	6.49 µM (inactive)	31.1 µM (inactive)	3.13 µM (inactive)	4.58 µM (inactive)	> 66.5 µM (inactive)	> 50 µM (inactive)	3.24 µM (inactive)	25.5 µM (inactive)	9.62 µM (inactive)	2.72 µM (inactive)	2.63 µM (inactive)	5.4 µM (inactive)	16.2 µM (inactive)	4.89 µM (inactive)	–	7.96 µM (inactive)	8.17 µM (inactive)	12.3 µM (inactive)	8.91 µM (inactive)
CC(C)(C)[Si](C)(C)OCc1cccc(OCCOc2cccc(CO[Si](C)(C)C(C)(C)C)c2[N+](=O)[O-])c1[N+](=O)[O-]	> 100 µM (inactive)	> 100 µM (inactive)	> 100 µM (inactive)	> 100 µM (inactive)	> 100 µM (inactive)	> 100 µM (inactive)	> 100 µM (inactive)	66.2 µM (inactive)	> 100 µM (inactive)	> 100 µM (inactive)	> 100 µM (inactive)	> 100 µM (inactive)	> 100 µM (inactive)	> 100 µM (inactive)	> 100 µM (inactive)	> 100 µM (inactive)	> 100 µM (inactive)	> 100 µM (inactive)	> 100 µM (inactive)	–
COc1cc(S(=O)(=O)Nc2nc(-c3ccc(N4C(=O)/C(=C\c5cccs5)N=C4c4ccccc4)cc3)cs2)ccc1Cl	18.7 µM (inactive)	> 100 µM (inactive)	> 100 µM (inactive)	> 100 µM (inactive)	> 100 µM (inactive)	66.8 µM (inactive)	24 µM (inactive)	39.5 µM (inactive)	> 100 µM (inactive)	57.3 µM (inactive)	> 100 µM (inactive)	34.8 µM (inactive)	> 100 µM (inactive)	46 µM (inactive)	–	66.2 µM (inactive)	36.7 µM (inactive)	> 100 µM (inactive)	> 100 µM (inactive)	64.9 µM (inactive)
COC12C(COC(=O)NCCO)C3=C(C(=O)C(C)=C(N)C3=O)N1CC1NC12 (stereo unspecified)	11.6 µM (inactive)	24.4 µM (inactive)	6.47 µM (inactive)	> 100 µM (inactive)	39.4 µM (inactive)	35.2 µM (inactive)	198 µM (inactive)	35.2 µM (inactive)	6.62 µM (inactive)	65.8 µM (inactive)	2.77 µM (inactive)	4.94 µM (inactive)	68.7 µM (inactive)	38.3 µM (inactive)	> 264 µM (inactive)	16.4 µM (inactive)	58.9 µM (inactive)	7.66 µM (inactive)	20.9 µM (inactive)	103 µM (inactive)
CCn1c2ccc(C(=O)CCCN3CCCCC3)cc2c2cc(C(=O)CCCN3CCCCC3)ccc21	4.94 µM (inactive)	3.43 µM (inactive)	3.3 µM (inactive)	5.32 µM (inactive)	5.33 µM (inactive)	2.13 µM (inactive)	2.44 µM (inactive)	2.45 µM (inactive)	2.43 µM (inactive)	1.33 µM (inactive)	3.48 µM (inactive)	2.13 µM (inactive)	2.11 µM (inactive)	1.44 µM (inactive)	4.84 µM (inactive)	2.58 µM (inactive)	13.2 µM (inactive)	1.81 µM (inactive)	0.938 µM (active)	2.97 µM (inactive)
C1=CC2(C=CC13O[C@H](C1CCCCC1)[C@@H](C1CCCCC1)O3)O[C@H](C1CCCCC1)[C@@H](C1CCCCC1)O2	> 50 µM (inactive)	> 50 µM (inactive)	> 50 µM (inactive)	> 50 µM (inactive)	> 50 µM (inactive)	> 50 µM (inactive)	> 50 µM (inactive)	> 50 µM (inactive)	> 50 µM (inactive)	> 50 µM (inactive)	> 50 µM (inactive)	> 50 µM (inactive)	> 50 µM (inactive)	> 50 µM (inactive)	–	> 50 µM (inactive)	> 50 µM (inactive)	> 50 µM (inactive)	> 50 µM (inactive)	> 50 µM (inactive)
Cc1cc(O)c(C(c2ccncc2)c2c(O)cc(C)[nH]c2=O)c(=O)[nH]1	> 100 µM (inactive)	> 100 µM (inactive)	> 100 µM (inactive)	> 100 µM (inactive)	> 100 µM (inactive)	> 100 µM (inactive)	> 100 µM (inactive)	> 100 µM (inactive)	> 100 µM (inactive)	> 100 µM (inactive)	5.12 µM (inactive)	> 100 µM (inactive)	> 100 µM (inactive)	> 100 µM (inactive)	> 100 µM (inactive)	> 100 µM (inactive)	> 100 µM (inactive)	> 100 µM (inactive)	> 100 µM (inactive)	> 100 µM (inactive)
CN(C)CCNC(=O)Cn1cnc2cccc([N+](=O)[O-])c2c1=O	> 100 µM (inactive)	> 100 µM (inactive)	> 100 µM (inactive)	> 100 µM (inactive)	> 100 µM (inactive)	> 100 µM (inactive)	> 100 µM (inactive)	> 100 µM (inactive)	> 100 µM (inactive)	> 100 µM (inactive)	> 100 µM (inactive)	> 100 µM (inactive)	> 100 µM (inactive)	–	> 100 µM (inactive)	> 100 µM (inactive)	> 100 µM (inactive)	> 100 µM (inactive)	> 100 µM (inactive)	> 100 µM (inactive)
C=C(Br)C(Br)(CCl)CCC(Cl)C(C)C.C=C(Cl)C(Br)(CCl)CCC(Cl)C(C)C (stereo unspecified)	1.75 µM (inactive)	2.3 µM (inactive)	2.21 µM (inactive)	1.63 µM (inactive)	1.65 µM (inactive)	2.91 µM (inactive)	2.49 µM (inactive)	0.442 µM (active)	6.92 µM (inactive)	1.94 µM (inactive)	2.81 µM (inactive)	1.79 µM (inactive)	2.29 µM (inactive)	–	15.8 µM (inactive)	3 µM (inactive)	0.413 µM (active)	14.8 µM (inactive)	1.36 µM (inactive)	0.684 µM (active)
Cc1nnc2sc(-c3ccc([N+](=O)[O-])o3)nn12	13.2 µM (inactive)	18.7 µM (inactive)	15.2 µM (inactive)	15.2 µM (inactive)	15 µM (inactive)	14.7 µM (inactive)	30.3 µM (inactive)	8.61 µM (inactive)	16.9 µM (inactive)	15 µM (inactive)	10 µM (inactive)	15.5 µM (inactive)	12.8 µM (inactive)	11.4 µM (inactive)	20.5 µM (inactive)	18.8 µM (inactive)	2.47 µM (inactive)	37.8 µM (inactive)	10.3 µM (inactive)	5.33 µM (inactive)
CC(=O)NC1C(OCc2ccccc2)OC(CO)C(O)C1OC(C)C(=O)NC(C(=O)NC(CCC(=O)NCCCC(=O)Nc1ccc2c(c1)CN1C(=O)c3ccccc3C1=N2)C(N)=O)C(C)C (stereo unspecified)	> 100 µM (inactive)	> 100 µM (inactive)	> 100 µM (inactive)	> 100 µM (inactive)	> 100 µM (inactive)	> 100 µM (inactive)	> 100 µM (inactive)	> 100 µM (inactive)	> 100 µM (inactive)	> 100 µM (inactive)	> 100 µM (inactive)	> 100 µM (inactive)	> 100 µM (inactive)	–	> 100 µM (inactive)	> 100 µM (inactive)	> 100 µM (inactive)	> 100 µM (inactive)	> 100 µM (inactive)	> 100 µM (inactive)
COC(=O)[C@H](Cc1ccccc1)NC(=O)CCCCCCC(=O)NO	12.3 µM (inactive)	15.2 µM (inactive)	–	33.4 µM (inactive)	7.23 µM (inactive)	8.79 µM (inactive)	12.6 µM (inactive)	4.89 µM (inactive)	10.7 µM (inactive)	39.8 µM (inactive)	28.3 µM (inactive)	26.4 µM (inactive)	10.7 µM (inactive)	5.28 µM (inactive)	> 100 µM (inactive)	> 100 µM (inactive)	6.01 µM (inactive)	44.5 µM (inactive)	28.6 µM (inactive)	6.53 µM (inactive)
